Experiments:
VIOAR = experiment: Activity with different soil types, greenhouse (Table 5); type: in vivo, Viola arvensis; settings: g of AS/ha: (A) 90, (B) 300, (C) 140, (A)+(B)+(C) 90 + 300 + 140
Procedure: (§1) In the standard design of the test, seeds of various broad-leaved weed and weed grass biotypes (origins) were sown in a 8-13 cm diameter pot filled with natural soil of a standard field soil (loamy silt; non-sterile) and covered with a covering soil layer of about 1 cm. The pots were then cultivated in a greenhouse (12-16 h of light, temperature day 20-22° C., night 15-18° C.) until the time of application. The pots were treated on a laboratory track sprayer with spray liquors comprising the compositions according to the invention, mixtures of the prior art or components used individually. Application of the active compounds or active compound combinations formulated as WG, WP, EC or otherwise was carried out at the appropriate growth stages of the plants. The application rate for the spray application was 100-600 l of water/ha. After the treatment, the plants were returned to the greenhouses.
(§2) About 3 weeks after the application, the soil action or/and foliar action was assessed visually according to a scale of 0-100% in comparison to an untreated comparative group: 0%=no noticeable effect compared to the untreated comparative group; 100%=full effect compared to the untreated comparative group.
(§3) (notes: the term “seeds” also includes vegetative propagation forms such as, for example, rhizome pieces; abbreviations used: h light=hours of illumination, g of AS/ha=gram of active substance per hectare, l/ha=liter per hectare, S=sensitive, R=resistant) • 1. Pre-emergence action against weeds: seeds of various broad-leaved weed and weed grass biotypes (origins) were sown in a 8-13 cm diameter pot filled with natural soil of a standard field soil (loamy silt; non-sterile) and covered with a covering soil layer of about 1 cm. The pots were then cultivated in a greenhouse (12-16 h of light, temperature day 20-22° C., night 15-18° C.) until the time of application. The pots were treated at the BBCH stage 00-10 of the seeds/plants on a laboratory track sprayer with spray liquors comprising the compositions according to the invention, mixtures or components used individually, as WG, WP, EC or other formulations. The application rate for the spray application was 100-600 l of water/ha. After the treatment, the plants were returned to the greenhouses and, when required, treated with fertilizer and watered. • 2. Post-emergence action against weeds: seeds of various broad-leaved weed and weed grass biotypes (origins) were sown in a 8-13 cm diameter pot filled with natural soil of a standard field soil (loamy silt; non-sterile) and covered with a covering soil layer of about 1 cm. The pots were then cultivated in a greenhouse (12-16 h of light, temperature day 20-22° C., night 15-18° C.) until the time of application. The pots were treated at various BBCH stages between 11-25 of the seeds/plants, i.e. generally between two to three weeks after the start of the cultivation, on a laboratory track sprayer with spray liquors comprising the compositions according to the invention, mixtures or components used individually, as WG, WP, EC or other formulations. The application rate for the spray application was 100-600 l of water/ha. After the treatment, the plants were returned to the greenhouses and, when required, treated with fertilizer and watered. • 3. Pre-emergence action against weeds with and without incorporation of active compound: seeds of various broad-leaved weed and weed grass biotypes (origins) were sown in a 8-13 cm diameter pot filled with natural soil of a standard field soil (loamy silt; non-sterile). […]

TRZAW = experiment: Different soil pH, PE application, crop selectivity, greenhouse (Table 8); type: in vivo, Triticum aestivum, winter wheat
Procedure: as §1, §2, §3

MATCH [1] = experiment: PE application with different irrigation, greenhouse (Table 4); type: in vivo, Matricaria chamomilla; settings: g of AS/ha: (A) 90, (B) 300, (C) 140, (A)+(B)+(C) 90 + 300 + 140
Procedure: as §1, §2, §3

HORVS [2] = experiment: PE application with different irrigation, crop selectivity, greenhouse (Table 4); type: in vivo, Hordeum vulgare, summer barley; settings: g of AS/ha: (A) 90, (B) 300, (C) 140, (A)+(B)+(C) 90 + 300 + 140
Procedure: as §1, §2, §3

HORVS [3] = experiment: Activity with different soil types, crop selectivity, greenhouse (Table 5); type: in vivo, Hordeum vulgare, summer barley; settings: g of AS/ha: (A) 90, (B) 300, (C) 140, (A)+(B)+(C) 90 + 300 + 140
Procedure: as §1, §2, §3

HORVS [4] = experiment: Different soil pH, PE application, crop selectivity, greenhouse (Table 8); type: in vivo, Hordeum vulgare, summer barley
Procedure: as §1, §2, §3

MATCH [5] = experiment: Different soil pH, PE application, greenhouse (Table 8); type: in vivo, Matricaria chamomilla
Procedure: as §1, §2, §3

POAAN = experiment: PO application, greenhouse (Table 2); type: in vivo, Poa annua; settings: g of AS/ha: (A) 120, (B) 1200, (C) 140, (A)+(B)+(C) 120 + 1200 + 140, visual, about 3 weeks after application
Procedure: as §1, §2
(§4) (notes: the term “seeds” also includes vegetative propagation forms such as, for example, rhizome pieces; abbreviations used: h light=hours of illumination, g of AS/ha=gram of active substance per hectare, l/ha=liter per hectare, S=sensitive, R=resistant) • 1. Pre-emergence action against weeds: seeds of various broad-leaved weed and weed grass biotypes (origins) were sown in a 8-13 cm diameter pot filled with natural soil of a standard field soil (loamy silt; non-sterile) and covered with a covering soil layer of about 1 cm. The pots were then cultivated in a greenhouse (12-16 h of light, temperature day 20-22° C., night 15-18° C.) until the time of application. […]

STEME [6] = experiment: PE soil application vs incorporation into the soil, greenhouse (Table 1); type: in vivo, Stellaria media; settings: g of AS/ha: (A) 90, (B) 300, (C) 70, (A)+(B)+(C) 90 + 300 + 70, visual, about 3 weeks after application
Procedure: as §1, §2, §3

STEME [7] = experiment: Activity with different soil types, greenhouse (Table 5); type: in vivo, Stellaria media; settings: g of AS/ha: (A) 90, (B) 300, (C) 140, (A)+(B)+(C) 90 + 300 + 140
Procedure: as §1, §2, §3

HORVS [8] = experiment: PO application, crop selectivity, greenhouse (Table 2); type: in vivo, Hordeum vulgare, summer barley; settings: g of AS/ha: (A) 120, (B) 1200, (C) 140, (A)+(B)+(C) 120 + 1200 + 140, visual, about 3 weeks after application
Procedure: as §1, §2, §4

HORVS [9] = experiment: PE application vs pre-sowing application, crop selectivity, greenhouse (Table 3); type: in vivo, Hordeum vulgare, summer barley; settings: g of AS/ha: (A) 90, (B) 300, (C) 140, (A)+(B)+(C) 90 + 300 + 140
Procedure: as §1, §2, §3

HORVS [10] = experiment: PE soil application vs incorporation into the soil, crop selectivity, greenhouse (Table 1); type: in vivo, Hordeum vulgare, summer barley; settings: g of AS/ha: (A) 90, (B) 300, (C) 70, (A)+(B)+(C) 90 + 300 + 70, visual, about 3 weeks after application
Procedure: as §1, §2, §3

STEME [11] = experiment: Resistant biotypes, PE application, greenhouse (Table 6); type: in vivo, Stellaria media; settings: g of AS/ha: (A) 90, (B) 300, (C) 140, (A)+(B)+(C) 120 + 600 + 140, iodosulfuron 10; for activity STEME resistant: resistant biotype; for activity STEME sensitive: sensitive biotype
Procedure: as §1, §2, §3

HORVS [12] = experiment: Different sowing depths, PE application, crop selectivity, greenhouse (Table 7); type: in vivo, Hordeum vulgare, summer barley; settings: g of AS/ha: (A) 90, (B) 300, (C) 140, (A)+(B)+(C) 90 + 300 + 140
Procedure: as §1, §2, §3

AVEFA = experiment: PE application with different irrigation, greenhouse (Table 4); type: in vivo, Avena fatua; settings: g of AS/ha: (A) 90, (B) 300, (C) 140, (A)+(B)+(C) 90 + 300 + 140
Procedure: as §1, §2, §3

[13] = IU soil (loamy silt standard field soil)
[14] = IU/EC73 soil (heavy soil, higher organic substance)
[15] = soil pH 7.4, g of AS/ha: (A) 90, (B) 300, (C) 140, (A)+(B)+(C) 90 + 300 + 140
[16] = soil pH 8.4, g of AS/ha: (A) 90, (B) 300, (C) 140, (A)+(B)+(C) 90 + 300 + 140

CC(C)N(C(=O)COc1nnc(C(F)(F)F)s1)c1ccc(F)cc1 [(A) flufenacet, N-(4-fluorophenyl)-N-(1-methylethyl)-2-[[5-(trifluoromethyl)-1,3,4-thiadiazol-2-yl]oxy]acetamide]
activity VIOAR IU soil (VIOAR; [13]): 0% | activity V18 VIOAR IU/EC73 soil (VIOAR; [14]): 0% | activity TRZAW pH 7.4 (crop plant) (TRZAW; [15]): 0% | activity TRZAW pH 8.4 (crop plant) (TRZAW; [16]): 20% | activity MATCH (MATCH [1]; irrigation from above): 49% | activity MATCH (MATCH [1]; irrigation from below): 15% | activity HORVS (crop plant) (HORVS [2]; irrigation from above): 95% | activity HORVS (crop plant) (HORVS [2]; irrigation from below): 80% | activity HORVS IU soil (crop plant) (HORVS [3]; [13]): 10% | activity HORVS IU/EC73 soil (crop plant) (HORVS [3]; [14]): 0% | activity HORVS pH 7.4 (crop plant) (HORVS [4]; [15]): 10% | activity HORVS pH 8.4 (crop plant) (HORVS [4]; [16]): 10% | activity MATCH pH 7.4 (MATCH [5]; [15]): 5% | activity MATCH pH 8.4 (MATCH [5]; [16]): 0% | activity POAAN (POAAN): 60% | activity STEME (STEME [6]; PE application): 0% | activity STEME (STEME [6]; incorporation into the soil): 20% | activity STEME IU soil (STEME [7]; [13]): 0% | activity STEME IU/EC73 soil (STEME [7]; [14]): 0% | activity HORVS (crop plant) (HORVS [8]): 40% | activity HORVS (crop plant) (HORVS [9]; PE application): 20% | activity HORVS (crop plant) (HORVS [9]; application 7 days prior to sowing): 40% | activity HORVS (crop plant) (HORVS [10]; PE application): 20% | activity HORVS (crop plant) (HORVS [10]; incorporation into the soil): 60% | activity STEME resistant (STEME [11]): 0% | activity STEME sensitive (STEME [11]): 0% | activity HORVS 5 mm (crop plant) (HORVS [12]; sowing depth 5 mm): 30% | activity HORVS 20 mm (crop plant) (HORVS [12]; sowing depth 20 mm): 20% | activity AVEFA (AVEFA; irrigation from above): 92% | activity AVEFA (AVEFA; irrigation from below): 63%

COc1nc(C)nc(NC(=O)NS(=O)(=O)c2cc(I)ccc2C(=O)O)n1 [iodosulfuron]
activity STEME resistant (STEME [11]): 40% | activity STEME sensitive (STEME [11]): 90%
